This note sets out measurements from ChEMBL document CHEMBL1201862, “PubChem BioAssay data set” (2004).

Common to all, as to assay: NCI anticancer screen, dose series, 48 h
Experiment [1] has as its system CAKI-1.
The test system of experiment [2] is COLO 205.
For experiment [3], the system named is EKVX.
Experiment [4] concerns HCC 2998.
Experiment [5] has as its system HCT-116.
Experiment [6] has as its system HCT-15.
For experiment [7], the system named is HL-60.
For experiment [8], the system named is HOP-62.
Experiment [9] relates to HT-29.
Experiment [10] relates to IGROV-1.
Experiment [11] deals with K562.
Experiment [12] concerns NCI-H226.
Experiment [13] has as its system NCI-H522.
Experiment [14] concerns OVCAR-8.
For experiment [15], the system named is RPMI-8226.
Experiment [16] relates to SK-MEL-28.
The subject of experiment [17] is SK-MEL-5.
Experiment [18] relates to SK-OV-3.
Experiment [19] deals with U-251.
Experiment [20] relates to UO-31.

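Protocol summary: plate cells (96-well), add compound at 5 concentrations, incubate 48 h, interpolate endpoints linearly. GI50 is the concentration that inhibits growth by half.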 The source made the active and inactive calls. Cut-off read from the data, not from the text of the source: active = GI50 up to about 1.1 µM and inactive = higher.

`COc1ccc(NC(=O)CC(=O)N2N=C(C)C(/N=N\c3ccc(S(=O)(=O)c4ccc(/N=N/C5C(=O)N(C(=O)CC(=O)Nc6ccc(OC)cc6)N=C5C)cc4)cc3)C2=O)cc1` (stereo not drawn): the GI50 in [1] is > 100 µM (inactive); in [2] it was > 100 µM (inactive); in experiment [3], > 100 µM (inactive); in experiment [4], > 100 µM (inactive); in [5], > 100 µM (inactive); in experiment [6], greater than 100 µM. Also, the GI50 was > 100 µM (inactive) in experiment [7]; 45.6 µM (inactive) in [8]; > 100 µM (inactive) in experiment [9]; 55.1 µM (inactive) in experiment [10]; 50 µM (inactive) in [11]; > 100 µM (inactive) in experiment [12]. The GI50 in [13] is > 100 µM (inactive); in experiment [14], > 100 µM (inactive); in [15], > 100 µM (inactive); in experiment [16], > 100 µM (inactive); in experiment [17] it was 63 µM (inactive); in experiment [18] it was > 100 µM (inactive). Besides, the GI50 in experiment [19] and in experiment [20] was > 100 µM (inactive) each time.
Consider `COc1cc([N+](=O)[O-])ccc1N1C(=O)C2c3[nH]c4ccccc4c3C3CCC(C(C)(C)C)CC3C2C1=O` (stereo not drawn), for which the GI50 in experiment [1] is 2.04 µM (inactive); in [2], > 100 µM (inactive); in [3], 33.4 µM (inactive); in [4] it was > 100 µM (inactive); in [5] it was 44.5 µM (inactive); in experiment [6], greater than 100 µM. The GI50 in [7] is > 100 µM (inactive); in experiment [8], 7.43 µM (inactive); in experiment [9] it was 88.9 µM (inactive); in experiment [10], > 100 µM (inactive); in [12], > 100 µM (inactive); in experiment [13], 42.4 µM (inactive). Moreover, the GI50 in [14] is 29 µM (inactive); in [15], > 100 µM (inactive); in experiment [16], 9.12 µM (inactive); in [17], 40.9 µM (inactive); in experiment [18] it was > 100 µM (inactive); in experiment [19] it was 9.79 µM (inactive). Further, the GI50 in [20] is > 100 µM (inactive).
As to `CC(c1ccccc1)N1CCN(C(C)c2ccccc2)CC1` (stereo not drawn), the GI50 in experiment [1] is > 100 µM (inactive); in [3] it was > 100 µM (inactive); in experiment [4] it was 20.1 µM (inactive); in [5], 43.5 µM (inactive); in [6], 57.1 µM; in [7] it was > 100 µM (inactive). The GI50 was > 100 µM (inactive) in experiment [8]; 44.8 µM (inactive) in [9]; > 100 µM (inactive) in [10]; 27.7 µM (inactive) in [11]; > 100 µM (inactive) in [12]; > 100 µM (inactive) in experiment [13]. Besides, the GI50 in experiment [14] was > 100 µM (inactive); in experiment [15], 26.1 µM (inactive); in experiment [16], 29 µM (inactive); in experiment [17], 17.1 µM (inactive); in [19], > 100 µM (inactive); in experiment [20], > 100 µM (inactive).
As for `O=Nn1c2ccccc2c2cc([N+](=O)[O-])ccc21`, the GI50 in experiment [1] was 16.4 µM (inactive); in [2] it was 34.3 µM (inactive); in [3], 11.2 µM (inactive); in experiment [4] it was 33 µM (inactive); in experiment [5], 13.9 µM (inactive); in [6] it was 22.3 µM. The GI50 in [7] was > 100 µM (inactive); in experiment [8], 12.3 µM (inactive); in experiment [9], 18 µM (inactive); in experiment [10], 15.7 µM (inactive); in [11], 11.1 µM (inactive); in experiment [13] it was 10.9 µM (inactive). Also, the GI50 in experiment [14] was 14.6 µM (inactive); in experiment [15] it was 13.3 µM (inactive); in experiment [16], 18.5 µM (inactive); in experiment [17], 30.5 µM (inactive); in experiment [18], 16.1 µM (inactive); in experiment [19], 16.4 µM (inactive). For the same molecule, in experiment [20], the GI50 was 22.4 µM (inactive).
Turning to `COc1ccc2c(C)cc(N/N=C(\C)C=O)nc2c1`, the GI50 in experiment [1] is 14.4 µM (inactive); in experiment [2], 13.8 µM (inactive); in experiment [3], 16.6 µM (inactive); in experiment [4], 11.9 µM (inactive); in [5] it was 11 µM (inactive); in experiment [6] it was 3.78 µM. Besides, the GI50 in [8] was 8.79 µM (inactive); in experiment [9] it was 12.2 µM (inactive); in [10], 16.5 µM (inactive); in experiment [11] it was 2.47 µM (inactive); in experiment [12], 10.5 µM (inactive); in experiment [13], 12.6 µM (inactive). For the same molecule, the GI50 was 11.5 µM (inactive) in experiment [14]; 6.31 µM (inactive) in experiment [15]; 13.7 µM (inactive) in experiment [16]; 12.7 µM (inactive) in experiment [17]; 11.2 µM (inactive) in experiment [18]; 11.4 µM (inactive) in experiment [19]. The GI50 in experiment [20] was 13.2 µM (inactive).
As to `COC(=O)C(C)NP(=O)(N1CC1)N1CC1` (stereo not drawn), the GI50 was > 100 µM (inactive) in [1]; > 100 µM (inactive) in [2]; > 100 µM (inactive) in experiment [3]; > 100 µM (inactive) in experiment [4]; greater than 100 µM in experiment [6]; 32.7 µM (inactive) in experiment [7]. For the same molecule, the GI50 in [9], in experiment [10], in experiment [11], in experiment [13], in [14] and in [15] was > 100 µM (inactive) each time. For the same molecule, the GI50 in experiment [16], in experiment [17], in experiment [18], in experiment [19] and in experiment [20] was > 100 µM (inactive) each time.
Consider `Cc1ccc(C)c(NC(=O)CCC(=O)CC(=O)C(C)(C)C)c1`, for which the GI50 in experiment [1] is > 100 µM (inactive); in [2], > 100 µM (inactive); in [3] it was > 100 µM (inactive); in experiment [4] it was > 100 µM (inactive); in experiment [5], > 100 µM (inactive); in [6], greater than 100 µM. Besides, the GI50 in [8], in experiment [9], in experiment [10], in [11], in experiment [13] and in experiment [14] was > 100 µM (inactive) each time. The GI50 in experiment [15], in experiment [16], in [17], in experiment [18], in experiment [19] and in experiment [20] was > 100 µM (inactive) throughout.
`O=S(=O)(C1=CC(S(=O)(=O)c2ccccc2)CN(Cc2ccccc2)C1c1cccc2ccccc12)c1ccccc1` (stereo not drawn): the GI50 is 20.7 µM (inactive) in experiment [1]; > 69 µM (inactive) in experiment [3]; > 69 µM (inactive) in experiment [4]; > 69 µM (inactive) in [5]; greater than 69 µM in [6]; > 69 µM (inactive) in experiment [7]. Further, the GI50 in experiment [8] was > 69 µM (inactive); in experiment [9] it was > 69 µM (inactive); in experiment [10] it was > 69 µM (inactive); in experiment [11], > 69 µM (inactive); in experiment [12] it was 14.6 µM (inactive); in [13] it was > 69 µM (inactive). Further, the GI50 in [14], in experiment [15], in [16], in experiment [17], in [18] and in [19] was > 69 µM (inactive) in each case. The GI50 in experiment [20] is > 69 µM (inactive).
With `Sc1nnc(-c2ccnc(-c3nnc(S)[nH]3)c2)[nH]1`, the GI50 in experiment [1] is > 100 µM (inactive); in [2], > 100 µM (inactive); in [3], > 100 µM (inactive); in [4] it was > 100 µM (inactive); in experiment [5] it was > 100 µM (inactive); in experiment [6], greater than 100 µM. The GI50 in experiment [7], in experiment [8], in experiment [9], in experiment [10], in experiment [11] and in experiment [12] was > 100 µM (inactive) in each case. Further, the GI50 in experiment [13], in [14], in experiment [15], in [16], in experiment [17] and in experiment [18] was > 100 µM (inactive) throughout. Also, the GI50 in experiment [19] and in experiment [20] was > 100 µM (inactive) throughout.
Turning to `CCOC(=O)c1nc2cc(C(F)(F)F)ccc2nc1Nc1ccc(C(=O)NC(C(=O)OCC)C(=O)OCC)cc1`, the GI50 was 19 µM (inactive) in experiment [1]; 44.4 µM (inactive) in experiment [2]; 26.2 µM (inactive) in experiment [3]; 49.4 µM (inactive) in [4]; 19 µM (inactive) in [5]; 26.5 µM in [6]. The GI50 is 73.6 µM (inactive) in [7]; 13.8 µM (inactive) in experiment [8]; 25.1 µM (inactive) in experiment [9]; 20.1 µM (inactive) in experiment [10]; 43.2 µM (inactive) in experiment [11]; 13.7 µM (inactive) in [12]. Moreover, the GI50 was 18.7 µM (inactive) in experiment [13]; 11.5 µM (inactive) in experiment [15]; 14.1 µM (inactive) in [16]; 20.5 µM (inactive) in [17]; 22.2 µM (inactive) in [18]; 14 µM (inactive) in experiment [19]. The GI50 in [20] was 30.6 µM (inactive).
